Reference: patent US20090269798A1, “METHOD AND SYSTEM FOR SELECTING CHEMOTHERAPEUTIC AGENTS” (UNIVERSITY OF NORTHERN IOWA RESEARCH FOUNDATION, priority 2008, published 2009)
Read-outs that look alike come from different tables or passages of the source. Marks after values point to notes of the source that are not given here.

How the values were obtained:
Jurkat cells = conditions: four-hour exposure, 25 μM H2O2
[1] = system: Jurkat (human T lymphocytic leukemia); conditions: 96 hours, ± standard deviation
Method: (§1) In the experiments shown in Table1 a/b, the indicated concentrations of hydrogen peroxide were added to the various types of cells and they were incubated for 96 hours until growth was measured by the ^3H-thymidine assay or viability determined by the 3-(4,5-diphenylthiazol-2-yl)-2,5-diphenyltetrazolium bromide (“MTT”) assay. Numbers represent triplicate or quadruplicate determinations.

[2] = system: K-562 (human erythroleukemia); conditions: 96 hours, ± standard deviation
Method: as §1

[3] = system: YT-INDY (human NK cell leukemia); conditions: 96 hours, ± standard deviation
Method: as §1

[4] = system: THP-1 (human monocytic leukemia); conditions: 96 hours, ± standard deviation
Method: as §1

Normal cells = conditions: 96 hours, ± standard deviation
Method: as §1

For OO [Hydrogen Peroxide, hydrogen peroxide], the “killing of Jurkat cells” value (Jurkat cells) was “significant killing”, the “amount of cell division remaining (compared to control cells without hydrogen peroxide)” value ([1]; 25 μM hydrogen peroxide) was 1.2 ± 0.4 and the “amount of cell division remaining (compared to control cells without hydrogen peroxide)” value ([1]; 50 μM hydrogen peroxide) was 2.4 ± 1.1. The “amount of cell division remaining (compared to control cells without hydrogen peroxide)” value ([1]; 100 μM hydrogen peroxide) was 1.3 ± 1.1, the “amount of cell division remaining (compared to control cells without hydrogen peroxide)” value ([1]; 200 μM hydrogen peroxide) was 1.0 ± 0.2 and the “amount of cell division remaining (compared to control cells without hydrogen peroxide)” value ([2]; 25 μM hydrogen peroxide) was 41.6 ± 24.5. The “level of live cells remaining (compared to control cells without hydrogen peroxide)” value ([2]; 25 μM hydrogen peroxide) was 58.6 ± 3.2, the “amount of cell division remaining (compared to control cells without hydrogen peroxide)” value ([2]; 50 μM hydrogen peroxide) was 7.1 ± 5.1 and the “level of live cells remaining (compared to control cells without hydrogen peroxide)” value ([2]; 50 μM hydrogen peroxide) was 19.6 ± 1.2. For the same compound, the “amount of cell division remaining (compared to control cells without hydrogen peroxide)” value ([2]; 100 μM hydrogen peroxide) was 4.3 ± 2.6, the “level of live cells remaining (compared to control cells without hydrogen peroxide)” value ([2]; 100 μM hydrogen peroxide) was 8.9 ± 0.2 and the “amount of cell division remaining (compared to control cells without hydrogen peroxide)” value ([2]; 200 μM hydrogen peroxide) was 2.7 ± 0.3. For the same compound, the “level of live cells remaining (compared to control cells without hydrogen peroxide)” value ([2]; 200 μM hydrogen peroxide) was 8.0 ± 0.4, the “amount of cell division remaining (compared to control cells without hydrogen peroxide)” value ([3]; 25 μM hydrogen peroxide) was 109.2 ± 2.4 and the “level of live cells remaining (compared to control cells without hydrogen peroxide)” value ([3]; 25 μM hydrogen peroxide) was 68.2 ± 4.8. For the same compound, the “amount of cell division remaining (compared to control cells without hydrogen peroxide)” value ([3]; 50 μM hydrogen peroxide) was 2.8 ± 0.8, the “level of live cells remaining (compared to control cells without hydrogen peroxide)” value ([3]; 50 μM hydrogen peroxide) was 32.1 ± 2.6 and the “amount of cell division remaining (compared to control cells without hydrogen peroxide)” value ([3]; 100 μM hydrogen peroxide) was 3.7 ± 2.5. The “level of live cells remaining (compared to control cells without hydrogen peroxide)” value ([3]; 100 μM hydrogen peroxide) was 29.7 ± 1.0, the “amount of cell division remaining (compared to control cells without hydrogen peroxide)” value ([3]; 200 μM hydrogen peroxide) was 10.2 ± 3.5 and the “level of live cells remaining (compared to control cells without hydrogen peroxide)” value ([3]; 200 μM hydrogen peroxide) was 27.5 ± 0.5. For the same compound, the “amount of cell division remaining (compared to control cells without hydrogen peroxide)” value ([4]; 25 μM hydrogen peroxide) was 115.8 ± 10.6, the “level of live cells remaining (compared to control cells without hydrogen peroxide)” value ([4]; 25 μM hydrogen peroxide) was 103.0 ± 2.2 and the “amount of cell division remaining (compared to control cells without hydrogen peroxide)” value ([4]; 50 μM hydrogen peroxide) was 102.8 ± 5.9. For the same compound, the “level of live cells remaining (compared to control cells without hydrogen peroxide)” value ([4]; 50 μM hydrogen peroxide) was 101.8 ± 1.8, the “amount of cell division remaining (compared to control cells without hydrogen peroxide)” value ([4]; 100 μM hydrogen peroxide) was 91.0 ± 0.2 and the “level of live cells remaining (compared to control cells without hydrogen peroxide)” value ([4]; 100 μM hydrogen peroxide) was 95.6 ± 0.6. The “amount of cell division remaining (compared to control cells without hydrogen peroxide)” value ([4]; 200 μM hydrogen peroxide) was 63.2 ± 7.1, the “level of live cells remaining (compared to control cells without hydrogen peroxide)” value ([4]; 200 μM hydrogen peroxide) was 65.6 ± 2.0 and the “amount of cell division remaining (compared to control cells without hydrogen peroxide)” value (Normal cells; 25 μM hydrogen peroxide) was 68.2 ± 5.4^b. For the same compound, the “level of live cells remaining (compared to control cells without hydrogen peroxide)” value (Normal cells; 25 μM hydrogen peroxide) was 100.6 ± 3.3^b, the “amount of cell division remaining (compared to control cells without hydrogen peroxide)” value (Normal cells; 50 μM hydrogen peroxide) was 84.4 ± 12.3 and the “level of live cells remaining (compared to control cells without hydrogen peroxide)” value (Normal cells; 50 μM hydrogen peroxide) was 102.7 ± 5.5. The “amount of cell division remaining (compared to control cells without hydrogen peroxide)” value (Normal cells; 100 μM hydrogen peroxide) was 92.5 ± 19.9, the “level of live cells remaining (compared to control cells without hydrogen peroxide)” value (Normal cells; 100 μM hydrogen peroxide) was 89.4 ± 0.9 and the “amount of cell division remaining (compared to control cells without hydrogen peroxide)” value (Normal cells; 200 μM hydrogen peroxide) was 81.9 ± 9.2. For the same compound, the “level of live cells remaining (compared to control cells without hydrogen peroxide)” value (Normal cells; 200 μM hydrogen peroxide) was 83.0 ± 1.8.
